Assay results taken from patent US9017645B2, “Homoglutamic acid derivatives” (Piramal Imaging SA, priority 2009, dated 2015).

Test system: H460 tumor bearing mice
Assay: Biodistribution in H460 tumor bearing mice
Assay type: in vivo, NMRI (nu/nu) mice
Conditions: for summary: urine: in %; for summary: carcass / summary: organs / summary: recovery: in % (unit assumed)
Method: Biodistribution in H460 tumor bearing mice. To test the pharmacokinetic properties of (2S)-2-amino-5-[3-[^18F]fluoropropyl]hexanedioic acid, the fluorinated compound was examined in H460 tumor bearing mice. NMRI (nu/nu) mice were inoculated with H460 tumor cells 8 to 10 days before the biodistribution studies. 185 kBq of activity of the fluorinated compound was injected into each mouse. n=3 mice were used at every time point. After injection of the F18-labeled compound, mice were sacrificed at the timepoints indicated. All organs were removed and radioactivity was determined using a γ-counter. […] Clearance of radioactivity takes place via the kidneys, with 67.9% of activity being excreted at 1 h p.i.

[1] = 1 h p.i., H460 tumor bearing mice

activity excreted via the kidneys [1]: 67.9%
uptake in the tumor [1]: 10.29 % injected dose per gram of tumor
retention of activity in the tumor (4 h p.i., H460 tumor bearing mice): 5.85 % injected dose per gram of tumor
tumor to blood ratio (H460 tumor bearing mice): 34.7
tumor to muscle ratio (H460 tumor bearing mice): 62.6
Tumor/Tissue bone (timepoint 0.25 h): 18.92
Tumor/Tissue brain (timepoint 0.25 h): 58.25
Tumor/Tissue heart (timepoint 0.25 h): 17.61
Tumor/Tissue kidney (timepoint 0.25 h): 0.60
Tumor/Tissue muscle (timepoint 0.25 h): 28.44
Tumor/Tissue skin (timepoint 0.25 h): 3.82
biodistribution adrenals (timepoint 0.25 h): 1.18 % Dosis/g
biodistribution blood (timepoint 0.25 h): 1.36 % Dosis/g
biodistribution bone (timepoint 0.25 h): 0.57 % Dosis/g
biodistribution brain (timepoint 0.25 h): 0.18 % Dosis/g
biodistribution fat (timepoint 0.25 h): 0.25 % Dosis/g
biodistribution gallbladder (timepoint 0.25 h): 1.08 % Dosis/g
biodistribution heart (timepoint 0.25 h): 0.60 % Dosis/g
biodistribution intestine (timepoint 0.25 h): 2.34 % Dosis/g
biodistribution kidney (timepoint 0.25 h): 17.49 % Dosis/g
biodistribution lung (timepoint 0.25 h): 3.22 % Dosis/g
biodistribution muscle (timepoint 0.25 h): 0.37 % Dosis/g
biodistribution ovaries (timepoint 0.25 h): 4.04 % Dosis/g
biodistribution pancreas (timepoint 0.25 h): 26.85 % Dosis/g
biodistribution skin (timepoint 0.25 h): 2.82 % Dosis/g
biodistribution spleen (timepoint 0.25 h): 5.15 % Dosis/g
biodistribution stomach (timepoint 0.25 h): 10.27 % Dosis/g
biodistribution tail (timepoint 0.25 h): 8.12 % Dosis/g
biodistribution thyroid (timepoint 0.25 h): 2.05 % Dosis/g
biodistribution tumor (timepoint 0.25 h): 10.58 % Dosis/g
biodistribution uterus (timepoint 0.25 h): 4.37 % Dosis/g
summary: urine (timepoint 0.25 h): 30.17
summary: carcass (timepoint 0.25 h): 18.07
summary: organs (timepoint 0.25 h): 39.99
summary: recovery (timepoint 0.25 h): 88.24
Tumor/Tissue bone (timepoint 0.5 h): 15.47
Tumor/Tissue brain (timepoint 0.5 h): 69.00
Tumor/Tissue heart (timepoint 0.5 h): 34.35
Tumor/Tissue kidney (timepoint 0.5 h): 1.43
Tumor/Tissue muscle (timepoint 0.5 h): 54.98
Tumor/Tissue skin (timepoint 0.5 h): 3.20
biodistribution adrenals (timepoint 0.5 h): 0.67 % Dosis/g
biodistribution blood (timepoint 0.5 h): 0.45 % Dosis/g
biodistribution bone (timepoint 0.5 h): 0.53 % Dosis/g
biodistribution brain (timepoint 0.5 h): 0.12 % Dosis/g
biodistribution fat (timepoint 0.5 h): 0.18 % Dosis/g
biodistribution gallbladder (timepoint 0.5 h): 0.47 % Dosis/g
biodistribution heart (timepoint 0.5 h): 0.24 % Dosis/g
biodistribution intestine (timepoint 0.5 h): 1.96 % Dosis/g
biodistribution kidney (timepoint 0.5 h): 5.64 % Dosis/g
biodistribution lung (timepoint 0.5 h): 1.62 % Dosis/g
biodistribution muscle (timepoint 0.5 h): 0.15 % Dosis/g
biodistribution ovaries (timepoint 0.5 h): 6.23 % Dosis/g
biodistribution pancreas (timepoint 0.5 h): 21.26 % Dosis/g
biodistribution skin (timepoint 0.5 h): 2.51 % Dosis/g
biodistribution spleen (timepoint 0.5 h): 4.37 % Dosis/g
biodistribution stomach (timepoint 0.5 h): 7.82 % Dosis/g
biodistribution tail (timepoint 0.5 h): 5.67 % Dosis/g
biodistribution thyroid (timepoint 0.5 h): 1.58 % Dosis/g
biodistribution tumor (timepoint 0.5 h): 8.17 % Dosis/g
biodistribution uterus (timepoint 0.5 h): 2.63 % Dosis/g
summary: faeces (timepoint 0.5 h): 0%
summary: urine (timepoint 0.5 h): 48.69
summary: carcass (timepoint 0.5 h): 10.51
summary: organs (timepoint 0.5 h): 32.54
summary: recovery (timepoint 0.5 h): 91.75
Tumor/Tissue bone (timepoint 1.0 h): 22.16
Tumor/Tissue brain (timepoint 1.0 h): 93.25
Tumor/Tissue heart (timepoint 1.0 h): 57.45
Tumor/Tissue kidney (timepoint 1.0 h): 3.31
Tumor/Tissue muscle (timepoint 1.0 h): 62.55
Tumor/Tissue skin (timepoint 1.0 h): 4.24
biodistribution adrenals (timepoint 1.0 h): 0.61 % Dosis/g
biodistribution blood (timepoint 1.0 h): 0.30 % Dosis/g
biodistribution bone (timepoint 1.0 h): 0.46 % Dosis/g
biodistribution brain (timepoint 1.0 h): 0.11 % Dosis/g
biodistribution fat (timepoint 1.0 h): 0.14 % Dosis/g
biodistribution gallbladder (timepoint 1.0 h): 0.57 % Dosis/g
biodistribution heart (timepoint 1.0 h): 0.18 % Dosis/g
biodistribution intestine (timepoint 1.0 h): 1.77 % Dosis/g
biodistribution kidney (timepoint 1.0 h): 3.10 % Dosis/g
biodistribution lung (timepoint 1.0 h): 1.43 % Dosis/g
biodistribution muscle (timepoint 1.0 h): 0.16 % Dosis/g
biodistribution ovaries (timepoint 1.0 h): 1.86 % Dosis/g
biodistribution pancreas (timepoint 1.0 h): 16.68 % Dosis/g
biodistribution skin (timepoint 1.0 h): 2.43 % Dosis/g
biodistribution spleen (timepoint 1.0 h): 2.87 % Dosis/g
biodistribution stomach (timepoint 1.0 h): 4.47 % Dosis/g
biodistribution tail (timepoint 1.0 h): 2.33 % Dosis/g
biodistribution thyroid (timepoint 1.0 h): 1.57 % Dosis/g
biodistribution tumor (timepoint 1.0 h): 10.29 % Dosis/g
biodistribution uterus (timepoint 1.0 h): 2.45 % Dosis/g
summary: faeces (timepoint 1.0 h): 0%
summary: urine (timepoint 1.0 h): 67.90
summary: carcass (timepoint 1.0 h): 9.28
summary: organs (timepoint 1.0 h): 25.76
summary: recovery (timepoint 1.0 h): 102.93
Tumor/Tissue bone (timepoint 2.0 h): 18.25
Tumor/Tissue brain (timepoint 2.0 h): 87.08
Tumor/Tissue heart (timepoint 2.0 h): 54.23
Tumor/Tissue kidney (timepoint 2.0 h): 6.15
Tumor/Tissue muscle (timepoint 2.0 h): 62.45
Tumor/Tissue skin (timepoint 2.0 h): 3.59
biodistribution adrenals (timepoint 2.0 h): 0.52 % Dosis/g
biodistribution blood (timepoint 2.0 h): 0.15 % Dosis/g
biodistribution bone (timepoint 2.0 h): 0.40 % Dosis/g
biodistribution brain (timepoint 2.0 h): 0.08 % Dosis/g
biodistribution fat (timepoint 2.0 h): 0.07 % Dosis/g
biodistribution gallbladder (timepoint 2.0 h): 0.48 % Dosis/g
biodistribution heart (timepoint 2.0 h): 0.13 % Dosis/g
biodistribution intestine (timepoint 2.0 h): 1.23 % Dosis/g
biodistribution kidney (timepoint 2.0 h): 1.17 % Dosis/g
biodistribution lung (timepoint 2.0 h): 1.04 % Dosis/g
biodistribution muscle (timepoint 2.0 h): 0.11 % Dosis/g
biodistribution ovaries (timepoint 2.0 h): 1.58 % Dosis/g
biodistribution pancreas (timepoint 2.0 h): 7.70 % Dosis/g
biodistribution skin (timepoint 2.0 h): 1.97 % Dosis/g
biodistribution stomach (timepoint 2.0 h): 3.35 % Dosis/g
biodistribution tail (timepoint 2.0 h): 1.64 % Dosis/g
biodistribution thyroid (timepoint 2.0 h): 1.37 % Dosis/g
biodistribution tumor (timepoint 2.0 h): 6.72 % Dosis/g
biodistribution uterus (timepoint 2.0 h): 2.72 % Dosis/g
summary: faeces (timepoint 2.0 h): 0.01%
summary: urine (timepoint 2.0 h): 68.67
summary: carcass (timepoint 2.0 h): 9.12
summary: organs (timepoint 2.0 h): 17.68
summary: recovery (timepoint 2.0 h): 94.72
Tumor/Tissue bone (timepoint 4.0 h): 15.04
Tumor/Tissue brain (timepoint 4.0 h): 83.21
Tumor/Tissue heart (timepoint 4.0 h): 68.93
Tumor/Tissue kidney (timepoint 4.0 h): 8.78
Tumor/Tissue muscle (timepoint 4.0 h): 64.19
Tumor/Tissue skin (timepoint 4.0 h): 5.40
biodistribution adrenals (timepoint 4.0 h): 0.61 % Dosis/g
biodistribution blood (timepoint 4.0 h): 0.10 % Dosis/g
biodistribution bone (timepoint 4.0 h): 0.39 % Dosis/g
biodistribution brain (timepoint 4.0 h): 0.08 % Dosis/g
biodistribution fat (timepoint 4.0 h): 0.06 % Dosis/g
biodistribution gallbladder (timepoint 4.0 h): 0.70 % Dosis/g
biodistribution heart (timepoint 4.0 h): 0.08 % Dosis/g
biodistribution intestine (timepoint 4.0 h): 0.97 % Dosis/g
biodistribution kidney (timepoint 4.0 h): 0.72 % Dosis/g
biodistribution lung (timepoint 4.0 h): 0.81 % Dosis/g
biodistribution muscle (timepoint 4.0 h): 0.09 % Dosis/g
biodistribution ovaries (timepoint 4.0 h): 2.18 % Dosis/g
biodistribution pancreas (timepoint 4.0 h): 4.51 % Dosis/g
biodistribution skin (timepoint 4.0 h): 1.31 % Dosis/g
biodistribution stomach (timepoint 4.0 h): 1.27 % Dosis/g
biodistribution tail (timepoint 4.0 h): 3.43 % Dosis/g
biodistribution thyroid (timepoint 4.0 h): 0.98 % Dosis/g
biodistribution tumor (timepoint 4.0 h): 5.85 % Dosis/g
biodistribution uterus (timepoint 4.0 h): 1.41 % Dosis/g
summary: faeces (timepoint 4.0 h): 2.1%
summary: urine (timepoint 4.0 h): 77.27
summary: carcass (timepoint 4.0 h): 4.03
summary: organs (timepoint 4.0 h): 12.00
summary: recovery (timepoint 4.0 h): 94.87
SMILES: N[C@@H](CCC(CCC[18F])C(=O)O)C(=O)O (stereo partly drawn) [(2S)-2-amino-5-[3-[^18F]fluoropropyl]hexanedioic acid]
